We go through 4 molecules from publication PMC12925725, “A potent nonapeptide inhibitor for the CXCL12/HMGB1 heterocomplex: A computational and experimental approach” (Computational and Structural Biotechnology Journal, 2025).

Series [1] deals with murine CXCR4 + 300.19 PreB cell line. Briefly: Peptide toxicity on murine CXCR4+ 300.19 PreB cells (AnnexinV-FITC / propidium iodide, flow cytometry). Type of series: cell-based. Particulars: 1 μM or 10 μM, 2 or 4 hours. On the procedure: (§1) After incubation, cells were stained using AnnexinV-FITC and propidium iodide following the manufacturer’s instructions, and cell viability was analyzed by ﬂow cytometry in comparison to the untreated control.
In general terms: A flow cytometer gives signals particle by particle.

Another series has as its system human monocytes. Briefly: Peptide toxicity on human monocytes (AnnexinV-FITC / propidium iodide, flow cytometry). Type of series: cell-based. Particulars: 1 μM or 10 μM, 2 or 4 hours. As for the experimental part: as §1
The target in series [2] is T1, HMGB1-BoxB (Homo sapiens, UniProt P09429).
T1 construct: His-tagged HMGB1-BoxB, HMGB1-BoxA, and full length HMGB1 proteins were produced at the Protein Facility; made in house
T1 sequence (P09429 95-163 limits assumed): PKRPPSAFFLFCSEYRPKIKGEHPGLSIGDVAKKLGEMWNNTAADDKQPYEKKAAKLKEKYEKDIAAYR
Briefly: Microscale thermophoresis (MST) binding to HMGB1-BoxB. As to conditions: 10 nM His-tag RED-tris-NTA labelled protein, PBS-T 0.05 % Tween 20, at least 40 min room temperature, 25 °C. On the procedure:
(§2) His-tagged HMGB1-BoxB, HMGB1-BoxA, and full length HMGB1 proteins were produced at the Protein Facility of the Institute for Research in Biomedicine as previously described, [17], and stored in phosphate-buffered saline (PBS; product No. D8537, Sigma Aldrich, Saint Louis, USA).
(§3) Target proteins were fluorescently-labeled using the specific His-Tag Labeling Kit RED-tris-NTA 2nd Generation of NanoTemper Technologies (Product No. MO-L018), according to manufacturer instructions. A fixed 10 nM concentration of labeled target protein was mixed with sixteen 1:1 serial dilutions of the ligand peptide (see Supplementary Materials, Table S4 for the details about the concentration ranges used for the peptides). Both protein and peptide were dissolved in PBS-T buffer (0.05 % Tween™ 20, NanoTemper Technologies), and incubated for at least 40 min at room temperature. […] Finally, the data were processed by employing the dedicated MO.Affinity Analysis software v2.3 (NanoTemper Technologies GmbH, München, Germany) and the Kd values were determined based on concentration-dependent changes in normalized fluorescence (Fnorm), while the figures were generated using GraphPad Prism software v8.0.2 (GraphPad, Boston, USA). […]
Background: Microscale thermophoresis detects binding through changes in fluorescence in a small temperature gradient.

For series [3], the target named is T2, HMGB1-BoxA (Homo sapiens, UniProt P09429).
T2 construct: His-tagged HMGB1-BoxB, HMGB1-BoxA, and full length HMGB1 proteins were produced at the Protein Facility; made in house
T2 sequence (P09429 9-79 limits assumed): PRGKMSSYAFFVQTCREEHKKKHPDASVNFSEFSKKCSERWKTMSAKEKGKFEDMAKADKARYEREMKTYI
Nature of the series: Microscale thermophoresis (MST) binding to HMGB1-BoxA. Particulars: 10 nM labelled protein, PBS-T 0.05 % Tween 20, at least 40 min room temperature, 25 °C. As for the experimental part: as §2, §3

In series [4] the target is T3, CXCL12/HMGB1 heterocomplex (Homo sapiens, UniProt P09429).
T3 construct: His-tagged HMGB1-BoxB, HMGB1-BoxA, and full length HMGB1 proteins were produced; His-tag; made in house
T3 sequence (P09429 1-215): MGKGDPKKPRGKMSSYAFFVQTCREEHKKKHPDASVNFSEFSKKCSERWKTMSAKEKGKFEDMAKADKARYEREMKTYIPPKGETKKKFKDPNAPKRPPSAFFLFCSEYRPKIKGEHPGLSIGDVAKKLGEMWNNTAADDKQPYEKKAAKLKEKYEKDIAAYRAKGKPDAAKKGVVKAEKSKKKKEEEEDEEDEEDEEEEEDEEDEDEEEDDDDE
Briefly: In vitro chemotaxis of human monocytes in response to the CXCL12/HMGB1 heterocomplex (Boyden chamber). Type of series: cell-based. Particulars: 1 nM CXCL12 + 300 nM HMGB1, peptide 0.1-10 μM, 90 min, four independent experiments, read-out: IC50, inhibition of monocyte migration in response to the CXCL12/HMGB1 heterocomplex. As for the experimental part:
The murine 300.19 PreB cell line, stably transfected with the human CXCR4 [47], was cultured under standard culture conditions (5 % CO2, […], 37 °C) in RPMI-1640, supplemented with 10 % Fetal Bovine Serum, 1x non-essential amino acids, 1 mM Sodium pyruvate, 20 mM GlutaMAX, 50 μM β-Mercaptoethanol, 50 U/mL Penicillin and 50 μg/mL Streptomycin (GIBCO). Human monocytes were freshly isolated from buffy-coats obtained by spontaneous donation from healthy individuals (Central Laboratory of Swiss Red Cross, Basel, Switzerland, and Centro Trasfusionale Lugano, Switzerland, Canton Ticino Ethical Committee approval CE3428), and isolated by positive selection using CD14 microbeads (Miltenyi Biotec), as previously described.
In vitro cell migration of CXCR4 + murine 300.19 PreB cells and of freshly isolated human monocytes was performed using Boyden chambers equipped with 5 μm pore membranes, as previously described. Briefly, cells were diluted at 10^6 cell/mL in RPMI 1640, supplemented with 20 mM Hepes, pH 7.4, and 1 % pasteurized plasma protein solution, and allowed to migrate for 90 min in response to different stimuli under standard conditions (5 % CO2, […], 37 °C). CXCL12 was used at 1 nM, 10 nM or 100 nM. The CXCL12/HMGB1 heterocomplex was formed by combining 1 nM CXCL12 with 300 nM HMGB1.

A further series is described as follows: Solubility in PBS buffer. Particulars: compared with HBP08–2. Type of series: physicochemical.
Series [5] deals with HMGB1-BoxB. Nature of the series: MST; 10 nM target protein labelled on its His tag (RED-tris-NTA) mixed with sixteen 1:1 serial dilutions of the peptide; PBS-T (0.05 % Tween 20); incubated at least 40 min at room temperature; 25 °C; Monolith NT.115 Pico, excitation 20 %, MST power 40 %.
In series [6] the target is T4, HMGB1-BoxA (RED-tris-NTA dye on the His tag (His-Tag Labeling Kit RED-tris-NTA 2nd Generation) in the MST).
T4 chain: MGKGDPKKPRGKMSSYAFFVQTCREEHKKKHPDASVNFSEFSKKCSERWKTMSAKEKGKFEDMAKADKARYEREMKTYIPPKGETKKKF
Described as above. Particulars: both partners purified.

The target of series [7] is T5, High Mobility Group Box 1 (HMGB1), full length (UniProt P09429 1-215, RED-tris-NTA dye on the His tag (His-Tag Labeling Kit RED-tris-NTA 2nd Generation) in the MST).
T5 construct: HMGB1, full length; also called recombinant HMGB1; source: produced at the Protein Facility of the Institute for Research in Biomedicine as previously described
T5 sequence (looked up): T3 sequence (P09429 1-215)
The series is described as above. As to conditions: both partners purified.

For orientation: Kd means the equilibrium constant for the complex coming apart. As for `CC[C@H](C)[C@H](NC(=O)[C@H](Cc1c[nH]c2ccccc12)NC(=O)[C@H](CCSC)NC(=O)[C@H](CCC(N)=O)NC(=O)[C@H](Cc1ccc(O)cc1)NC(=O)[C@H](Cc1c[nH]cn1)NC(=O)[C@H](CCCNC(=N)N)NC(=O)[C@@H]1CCCN1)C(=O)N[C@@H](Cc1c[nH]cn1)C(=O)O` [HBP08–2], in series [1], the “toxicity on murine CXCR4+ 300.19 PreB cells” value is recorded as “did not exhibit toxicity”. Also, the “toxicity on human monocytes” value in the series with human monocytes was “did not exhibit toxicity”. The Kd at HMGB1-BoxB [2] was determined as 0.0113 ± 0.0023 µM; on HMGB1-BoxA [3] it was 4.2 ± 0.4 µM. In addition, the IC50 in series [4] was 3.31 µM.

At HMGB1-BoxB [2], `CC[C@H](C)[C@H](NC(=O)[C@H](Cc1c[nH]c2ccccc12)NC(=O)[C@H](CCSC)NC(=O)[C@H](CCSC)NC(=O)[C@H](Cc1ccc(O)cc1)NC(=O)[C@H](Cc1c[nH]cn1)NC(=O)[C@H](CCCNC(=N)N)NC(=O)[C@@H]1CCCN1)C(=O)N[C@@H](Cc1c[nH]cn1)C(=O)O` [HBP08–3] came in with a Kd of 0.0153 ± 0.0019 µM. The “solubility in PBS buffer” value in “Solubility in PBS buffer” is reported as “lower solubility”.

For PRHYMMWIH [HBP08–3], the Kd with HMGB1-BoxB [5] was determined as 0.0153 µM.

B1: HBP08–2 (peptide)
peptide: PRHYQMWIH
notes: Reconstituted in DMSO; also called G1P + E5Q; source: synthetic peptide, synthetized by Proteogenix (without TFA), purity about 99 %
Take B1: the Kd worked out at 0.0113 µM with HMGB1-BoxB [5], 4.2 ± 0.4 µM with HMGB1-BoxA [6] and 0.0281 ± 0.007 µM in series [7].
